For eleven molecules, IC50 results are on record in US20210395256A1, “TYROSINE KINASE INHIBITORS, COMPOSITIONS AND METHODS THERE OF” (Betta Pharmaceuticals Co., Ltd., priority 2018, published 2021).

By IC50 is commonly meant the midpoint of a concentration-inhibition curve.

TrkA kinase, sequence (P04629 33-796): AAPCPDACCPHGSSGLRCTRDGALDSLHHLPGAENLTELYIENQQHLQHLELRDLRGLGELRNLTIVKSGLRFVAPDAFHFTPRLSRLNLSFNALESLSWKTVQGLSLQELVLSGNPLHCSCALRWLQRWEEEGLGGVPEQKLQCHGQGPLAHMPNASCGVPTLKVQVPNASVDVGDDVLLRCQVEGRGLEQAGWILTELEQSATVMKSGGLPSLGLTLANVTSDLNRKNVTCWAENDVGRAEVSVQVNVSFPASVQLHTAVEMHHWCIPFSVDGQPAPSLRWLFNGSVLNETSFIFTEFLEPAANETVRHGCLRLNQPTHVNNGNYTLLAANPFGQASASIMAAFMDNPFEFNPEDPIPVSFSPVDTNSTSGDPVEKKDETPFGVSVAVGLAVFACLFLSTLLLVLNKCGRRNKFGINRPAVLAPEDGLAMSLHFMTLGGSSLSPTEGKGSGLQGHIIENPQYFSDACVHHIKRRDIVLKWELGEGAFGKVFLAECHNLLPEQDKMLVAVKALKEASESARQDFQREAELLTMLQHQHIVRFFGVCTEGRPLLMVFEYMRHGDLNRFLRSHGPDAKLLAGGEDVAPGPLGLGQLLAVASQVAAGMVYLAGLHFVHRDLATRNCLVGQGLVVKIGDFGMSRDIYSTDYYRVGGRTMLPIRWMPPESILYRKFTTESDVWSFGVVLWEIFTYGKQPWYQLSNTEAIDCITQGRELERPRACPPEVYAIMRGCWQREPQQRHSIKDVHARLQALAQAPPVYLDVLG

In the first assay the target is TrkA kinase (Homo sapiens, UniProt P04629). As to the kind of experiment: TrkA kinase assay (mobility shift assay). It is filed as biochemical. The note with it: class symbols; read-out: Trk A Kinase IC50. The procedure, abridged:
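Ten-point compound series was preincubated 10 min at room temperature with TrkA, then FAM-peptide plus ATP added in HEPES pH 7.5/Brij-35 buffer and reacted at 28 °C before EDTA quench.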
As for `COc1cc2nc(-c3c(N)nn4ccc(N5CCC[C@@H]5c5cc(F)ccc5F)nc34)[nH]c2cc1OC` [Compound 193, (R)-5-(2-(2,5-difluorophenyl)pyrrolidin-1-yl)-3-(5,6-dimethoxy-1H-benzo[d]imidazol-2-yl)pyrazolo[1,5-a]pyrimidin-2-amine], the IC50 was at most 10 nM.

Turning to `O=C1NCCOc2cc3[nH]c(-c4cnn5ccc(N6CCC[C@@H]6c6cc(F)ccc6F)nc45)nc3cc21` [Compound 147, (R)-2-(5-(2-(2,5-difluorophenyl)pyrrolidin-1-yl)pyrazolo[1,5-a]pyrimidin-3-yl)-7,8-dihydro-3H-imidazo[4′,5′:4,5]benzo[1,2-f][1,4]oxazepin-9(6H)-one], the half-maximal inhibitory concentration (IC50) is at most 10 nM.

With `COc1cc2oc(-c3cnn4ccc(N5CCC[C@@H]5c5cc(F)ccc5F)nc34)nc2cc1CN1CCC[C@H]1C(=O)O` [Compound 180, ((2-(5-((R)-2-(2,5-difluorophenyl)pyrrolidin-1-yl)pyrazolo[1,5-a]pyrimidin-3-yl)-6-methoxybenzo[d]oxazol-5-yl)methyl)-L-proline], the IC50 is above 50 nM.

Take `OC1CCc2nc(-c3cnn4ccc(N5CCC[C@@H]5c5cc(F)ccc5F)nc34)nn2C1` (stereo partly drawn) [Compound 132, 2-(5-((R)-2-(2,5-difluorophenyl)pyrrolidin-1-yl)pyrazolo[1,5-a]pyrimidin-3-yl)-5,6,7,8-tetrahydro-[1,2,4]triazolo[1,5-a]pyridin-6-ol]: the half-inhibitory concentration (IC50) lay in the range of 10 to 50 nM.

In the case of `Fc1ccc(F)c([C@H]2CCCN2c2ccn3ncc(-c4nnc(C5CCOC5)[nH]4)c3n2)c1` (stereo partly drawn) [Compound 3, 5-((R)-2-(2,5-difluorophenyl)pyrrolidin-1-yl)-3-(5-(tetrahydrofuran-3-yl)-4H-1,2,4-triazol-3-yl)pyrazolo[1,5-a]pyrimidine], the IC50 was in the range of 10 to 50 nM.

Consider `Fc1ccc(F)c([C@H]2CCCN2c2ccn3ncc(-c4nnc(-c5ccnc(N6CCOCC6)c5)[nH]4)c3n2)c1` [Compound 6, (R)-4-(4-(5-(5-(2-(2,5-difluorophenyl)pyrrolidin-1-yl)pyrazolo[1,5-a]pyrimidin-3-yl)-4H-1,2,4-triazol-3-yl)pyridin-2-yl)morpholine], for which the IC50 is at most 10 nM.

Take `N#Cc1cc2nc(-c3cnn4ccc(N5CCC[C@@H]5c5cc(F)ccc5F)nc34)[nH]c2cc1OCCO` [Compound 150, (R)-2-(5-(2-(2,5-difluorophenyl)pyrrolidin-1-yl)pyrazolo[1,5-a]pyrimidin-3-yl)-6-(2-hydroxyethoxy)-1H-benzo[d]imidazole-5-carbonitrile]: the IC50 was at most 10 nM.

The assay is the same for the next values; noted with them: numeric values; read-out: Trk A Kinase IC50.
Consider `Fc1ccc(F)c([C@H]2CCCN2c2ccn3ncc(-c4nc5cc6c(cc5[nH]4)OCCCO6)c3n2)c1` [Compound 134, (R)-2-(5-(2-(2,5-difluorophenyl)pyrrolidin-1-yl)pyrazolo[1,5-a]pyrimidin-3-yl)-7,8-dihydro-1H,6H-[1,4]dioxepino[2′,3′:4,5]benzo[1,2-d]imidazole], for which the IC50 stood at 1.1 nM.

Turning to `OC1CCN(c2cc(-c3nnc(-c4cnn5ccc(N6CCC[C@@H]6c6cc(F)ccc6F)nc45)[nH]3)ccn2)CC1` [Compound 2, (R)-1-(4-(5-(5-(2-(2,5-difluorophenyl)pyrrolidin-1-yl)pyrazolo[1,5-a]pyrimidin-3-yl)-4H-1,2,4-triazol-3-yl)pyridin-2-yl)piperidin-4-ol], the IC50 stood at 0.43 nM.

On to `Fc1ccc(F)c([C@H]2CCCN2c2ccn3ncc(-c4cc5ccc(F)cc5[nH]4)c3n2)c1` [Compound 183, (R)-5-(2-(2,5-difluorophenyl)pyrrolidin-1-yl)-3-(6-fluoro-1H-indol-2-yl)pyrazolo[1,5-a]pyrimidine], for which the IC50 was determined as 20.4 nM.

As to `CN1CCN(c2ccc(-c3nnc(-c4cnn5ccc(N6CCC[C@@H]6c6cc(F)ccc6F)nc45)[nH]3)cn2)CC1` [Compound 54, (R)-5-(2-(2,5-difluorophenyl)pyrrolidin-1-yl)-3-(5-(6-(4-methylpiperazin-1-yl)pyridin-3-yl)-4H-1,2,4-triazol-3-yl)pyrazolo[1,5-a]pyrimidine], the IC50 turned out to be 1.17 nM.
